From the NIST ThermoML archive (doi:10.1021/je034062r)
Numbers after ± are expanded uncertainties.

Legend:
[1] = 101.3 kPa, Liquid mixture 1
[2] = xn = mol fraction of the nth substance listed; details: for surface tension liquid-gas: Pendant drop shape; for mass density: Liquid

CCCCCCCCCC [decane] + CN(C)C=O
[1]
Details	interfacial tension [mN/m]
292.78 K	3.78 ± 0.38
297.77 K	3.41 ± 0.34
302.79 K	3.1 ± 0.31
307.81 K	2.72 ± 0.27
312.79 K	2.4 ± 0.24
317.8 K	2.09 ± 0.21
322.78 K	1.82 ± 0.18
327.81 K	1.53 ± 0.15
332.81 K	1.24 ± 0.12
337.76 K	0.95 ± 0.095
342.78 K	0.69 ± 0.069
346.8 K	0.48 ± 0.048
348.32 K	0.37 ± 0.037
350.11 K	0.32 ± 0.032
352.77 K	0.19 ± 0.019
353.65 K	0.15 ± 0.016
354.76 K	0.105 ± 0.016
355.31 K	0.083 ± 0.016
355.62 K	0.07 ± 0.016
356.15 K	0.056 ± 0.016
356.72 K	0.035 ± 0.016
357.15 K	0.019 ± 0.016
357.45 K	0.012 ± 0.016

CC(C)=O [acetone] + C1CCCCC1
[2]
Details	mass density, 288.15 K [kg/m3]	mass density, 298.15 K [kg/m3]	mass density, 308.15 K [kg/m3]	mass density, 318.15 K [kg/m3]	surface tension liquid-gas, 287.81 K [mN/m]	surface tension liquid-gas, 297.82 K [mN/m]	surface tension liquid-gas, 307.86 K [mN/m]	surface tension liquid-gas, 317.86 K [mN/m]
x2 = 0	798.2 ± 0.9	787 ± 0.9	775.4 ± 1	762.5 ± 1	23.94	22.78	21.59	20.33
x2 = 0.1002	790 ± 1.1	779.7 ± 1.1	768.4 ± 1.1	756.9 ± 1.1	23.54	22.25	21.03	19.91
x2 = 0.2001	786.6 ± 1	775.3 ± 1	764.2 ± 1.1	753 ± 1.1	23.19	22.02	20.78	19.63
x2 = 0.2993	783.2 ± 1	772.3 ± 1	761.4 ± 1	750.2 ± 1.1	23.23	22.02	20.82	19.63
x2 = 0.3979	781.1 ± 1	769.7 ± 1	759.6 ± 1	748.6 ± 1.1	23.33	22.08	20.89	19.7
x2 = 0.4964	779.7 ± 1	769.2 ± 1	758.6 ± 1	747.8 ± 1	23.58	22.22	21.14	20
x2 = 0.6	778.9 ± 1	768.6 ± 1	758.2 ± 1	747.6 ± 1	23.91	22.53	21.35	20.3
x2 = 0.6975	778.9 ± 1	768.7 ± 1	759.9 ± 1	748.3 ± 1.1	24.31	22.84	21.6	20.56
x2 = 0.7993	779.4 ± 1	769.5 ± 1	759.6 ± 1	749.6 ± 1.1	24.69	23.24	22.08	21.04
x2 = 0.8994	780.7 ± 1	771.1 ± 1	761.4 ± 1	751.6 ± 1.1	25.12	23.82	22.58	21.46

CN(C)C=O [dimethylformamide] + CCCCCCC
[1]
Details	interfacial tension [mN/m]
297.83 K	2.49 ± 0.12
302.83 K	2.19 ± 0.11
307.85 K	1.87 ± 0.09
312.85 K	1.59 ± 0.08
317.86 K	1.26 ± 0.06
322.86 K	0.93 ± 0.047
327.88 K	0.66 ± 0.033
332.88 K	0.42 ± 0.021
334.87 K	0.302 ± 0.016
336.86 K	0.213 ± 0.016
337.88 K	0.169 ± 0.016
338.88 K	0.122 ± 0.016
339.87 K	0.086 ± 0.016
340.87 K	0.042 ± 0.016
341.25 K	0.032 ± 0.016
341.88 K	0.02 ± 0.016
342.18 K	0.011 ± 0.016

Cc1ccccc1 [toluene] + CC(C)=O
[2], x1 = 1
Details	mass density [kg/m3]	surface tension liquid-gas [mN/m]
283.15 K	875.9 ± 1.3	–
287.81 K	–	28.93 ± 0.31
288.15 K	871.4 ± 1.3	–
293.15 K	866.9 ± 1.3	–
297.82 K	–	27.76 ± 0.3
298.15 K	862.4 ± 1.4	–
303.15 K	857.8 ± 1.4	–
307.86 K	–	26.6 ± 0.29
308.15 K	853.2 ± 1.4	–
313.15 K	848.6 ± 1.5	–
317.86 K	–	25.46 ± 0.28
318.15 K	843.9 ± 1.5	–
323.15 K	839.2 ± 1.5	–
327.88 K	–	24.29 ± 0.27
328.15 K	834.5 ± 1.5	–
333.15 K	829.8 ± 1.6	–

CN1CCCC1=O [N-methylpyrrolidone] + CCCCCCC
[1]
Details	interfacial tension [mN/m]
297.76 K	1.202 ± 0.12
302.78 K	0.93 ± 0.093
307.81 K	0.68 ± 0.068
312.84 K	0.45 ± 0.045
317.79 K	0.24 ± 0.024
320.65 K	0.137 ± 0.016
322.8 K	0.079 ± 0.016
323.75 K	0.055 ± 0.016
324.8 K	0.033 ± 0.016
325.43 K	0.019 ± 0.016
325.81 K	0.012 ± 0.016
326.1 K	0.009 ± 0.016

CCCCCCC [heptane] + C1CCCCC1
[2], x2 = 0
Details	mass density [kg/m3]	surface tension liquid-gas [mN/m]
283.15 K	692.2 ± 0.7	–
287.81 K	–	20.7 ± 0.26
288.15 K	688 ± 0.7	–
293.15 K	683.8 ± 0.7	–
297.82 K	–	19.63 ± 0.25
298.15 K	679.5 ± 0.7	–
303.15 K	675.2 ± 0.7	–
307.86 K	–	18.68 ± 0.24
308.15 K	670.9 ± 0.7	–
313.15 K	666.5 ± 0.7	–
317.86 K	–	17.76 ± 0.24
318.15 K	662.1 ± 0.7	–
323.15 K	657.7 ± 0.7	–
327.88 K	–	16.68 ± 0.23
328.15 K	653.2 ± 0.7	–
333.15 K	648.7 ± 0.7	–

C1CCCCC1 [cyclohexane] + CC(C)=O
[2], x1 = 1
Details	mass density [kg/m3]	surface tension liquid-gas [mN/m]
287.81 K	–	25.34
288.15 K	783.2 ± 0.9	–
297.82 K	–	24.2
298.15 K	773.9 ± 1	–
307.86 K	–	23.02
308.15 K	764.4 ± 1	–
317.86 K	–	21.84
318.15 K	754.8 ± 1	–
